Measurements published in patent US12415785B2, “Compound modulators of sting” (CTXT PTY LTD, priority 2019, dated 2025).
pEC50: −log10 of the molar value. Where two headings read alike, the source gives them in different places.

Experiments:
[1] = molecular target: human STING (WT) (Homo sapiens (Human), UniProt Q86WV6, H232R); test: Differential scanning fluorimetry (DSF), huSTING (WT); type: binding; conditions: read-out: DSF huSTING (WT) ΔTm (° C.)
Description: (§1) Biophysical experiments were performed with three different recombinant human STING protein variants designated according to allelic nomenclature of Yi et al., (2013). […] These were ligated into a modified pET43a E. coli expression vector designed to encode N-terminal His tag followed by tobacco etch virus protease (TEV) cleavage site and a STING gene sequence. The resulting protein sequences for the three allelic variants are listed below: […] Cultures were then cooled to 16° C. and protein expression induced by the addition of isopropyl β-D-1-thiogalactopyranoside to a final concentration of 0.5 mM and the cultures shaken overnight for further 16 hours. Following expression, cell cultures were centrifuged at 5000×g for 20 min and cell pellet stored frozen at −70° C. Protein purification was initiated by thawing the cell pellet in Lysis buffer (25 mM Tris-HCl pH 8.0, 300 mM NaCl, 5 mM DTT, 2 mM MgCl2, 10 mM imidazole, 0.5 mg/ml lysozyme, benzonase endonuclease [EMD Millipore], 1 mM PMSF, complete protease inhibitor tablets EDTA-free [Roche]) using a ratio of 7 ml of buffer per 1 g of cells. Cells were further lysed by 3 passes through an ice cooled Avestin C5 cell crusher and then centrifuged at 48,000×g at 4° C. […] The IMAC column was then sequentially washed with IMAC Wash buffer 1 and IMAC Wash buffer 2 (25 mM Tris-HCl pH 8.0, 300 mM NaCl, 5 mM DTT, 20 mM Imidazole) and bound His-TEV-hSTING protein eluted with IMAC Elution buffer (25 mM Tris-HCl pH 8.0, 300 mM NaCl, 5 mM DTT, 250 mM Imidazole). […] Differential scanning fluorimetry (DSF) is a rapid screening method for identifying low-molecular-weight ligands that bind and, in doing so, stabilize (or sometimes destabilize) purified proteins (Niesen 2007). DSF monitors thermal unfolding of protein in the presence of a fluorescent dye and is typically performed using a real-time PCR instrument. The temperature at which a protein unfolds is measured by an increase in the fluorescence of a dye with affinity for hydrophobic parts of the protein that are gradually being exposed during unfolding. The fluorescence of the dye is quenched in aqueous environments, but when the dye associates with hydrophobic sites on unfolded protein, its fluorescence increases. The fluorescence intensity is plotted as a function of the temperature, generating a sigmoidal curve that can be described by a two-state transition. The inflection point of the transition curve (Tm) is calculated using simple equations such as that of Boltzmann. Thermal stability of STING protein (with and without bound ligand) was measured using previously described methodology (Seabrook & Newman, 2013), with samples tested in triplicate using 96-well PCR microplate (AB Gene, ABGAB-0600/W). […] Sealed plates were placed into Bio-Rad CFX96/C1000 thermocycler and FRET scanning mode (λ^excitation of 490 nm and reads at a λ^emission of 570 nm). Melting curves were recorded from 20° C. to 100° C. in 0.5° C. increments every 30 seconds with a read at each increment. Data were analysed using “Meltdown analysis” protocol described by Rosa (2015).

[2] = molecular target: human STING (HAQ) (Homo sapiens, UniProt Q86WV6, G230A/H232R/R293Q); test: Differential scanning fluorimetry (DSF), huSTING (HAQ); type: binding; conditions: read-out: DSF huSTING (HAQ) ΔTm (° C.)
human STING (HAQ), sequence (Q86WV6 whole entry G230A/H232R/R293Q, looked up): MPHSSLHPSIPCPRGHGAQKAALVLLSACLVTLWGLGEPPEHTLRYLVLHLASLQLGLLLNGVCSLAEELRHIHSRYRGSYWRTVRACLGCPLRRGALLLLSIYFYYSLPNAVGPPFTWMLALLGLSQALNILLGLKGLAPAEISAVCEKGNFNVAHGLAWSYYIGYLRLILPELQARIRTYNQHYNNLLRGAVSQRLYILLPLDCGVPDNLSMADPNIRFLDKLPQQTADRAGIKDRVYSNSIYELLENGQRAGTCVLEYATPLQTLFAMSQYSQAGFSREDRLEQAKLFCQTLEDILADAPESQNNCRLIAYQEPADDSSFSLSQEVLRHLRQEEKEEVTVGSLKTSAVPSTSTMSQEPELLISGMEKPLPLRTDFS
Description: as §1

[3] = molecular target: WT human STING isoform (THP-1-Dual KI-hSTING-R232 cells) (Homo sapiens (Human), UniProt Q86WV6, H232R); test: THP-1-Dual KI-hSTING-R232 reporter cell line assay; type: cell-based; conditions: 24 h incubation, QUANTI-Luc luminescence
WT human STING isoform (THP-1-Dual KI-hSTING-R232 cells), sequence (Q86WV6 whole entry H232R, canonical isoform): as the sequence (Q86WV6 whole entry G230A/H232R/R293Q, looked up) above, with A230G, Q293R counted along it
Description: (§2) THP-1 STING Lucia ISG cells (InvivoGen #thpI-isg) were cultured in RPMI-1640 containing 2 mM L-glutamine, 25 mM HEPES, 100 μg/mL Normocin (InvivoGen) and 10% heat-inactivated FBS. Cells were seeded at a density of 7×10^5 cells/mL, maintained at 37° C./5% CO2, and passaged every 3-4 days. Selection pressure was maintained by the addition of 100 μg/mL Zeocin every second passage.
(§3) Assay conditions: cells were harvested and resuspended at a concentration of 5×10^5 cells/mL in fresh growth media. Of this cell preparation 20 μL per well was dispensed into 384 well cell culture plates (Greiner, #781098X) and incubated at 37° C./5% CO2 for 2 hours. Concentration Response Curves (commonly 11 doses) were prepared by 2.5 fold serial dilution starting from 10 mM compound stock solution in DMSO. Compound dilutions were transferred into the cell culture plates using a pintool (0.1 μL transfer), control wells were matched for DMSO. Positive control wells received ML RR—S2 CDA (Med Chem Express HY12885B) in 5 μL of media to a final concentration of 40 μM. All other wells received additional 5 μL of media only to equalise volume. The plates were incubated for 24 h at 37° C./5% CO2.
(§4) For the detection step, QUANTI-Luc (InvivoGen #rep-qlc1) was prepared according to manufacturer's instruction and 10 μL were added per well to the culture plates. Plates were shaken for ten seconds on an orbital shaker and left in the dark at room temperature for two minutes, before luminescence was read on a Perkin Elmer Envision plate reader.
(§5) Data analysis: Luminescence raw data was normalised % activity relative to the signal of the positive control wells and negative control wells which were not treated with compound. The following formula was used to calculate normalised % activity from raw signals: % activity=(sample−negative)/(positive−negative)
(§6) The THP-1 STING Lucia ISG cell EC50 provides an assessment of activity at the human HAQ isoform of STING. For assessing compound activity against the WT human STING isoform, an equivalent method was conducted where the cells used were THP-1-Dual KI-hSTING-R232 (InvivoGen #thpd-r232).

[4] = molecular target: human HAQ isoform of STING (THP-1 STING Lucia ISG cells) (Homo sapiens (Human), UniProt Q86WV6, G230A/H232R/R293Q/R71H); test: THP-1 STING Lucia ISG reporter cell line assay; type: cell-based; conditions: 24 h incubation, QUANTI-Luc luminescence
human HAQ isoform of STING (THP-1 STING Lucia ISG cells), sequence (Q86WV6 whole entry R71H/G230A/H232R/R293Q, canonical isoform): as the sequence (Q86WV6 whole entry G230A/H232R/R293Q, looked up) above, with R71H counted along it
Description: as §2, §3, §4, §5, §6

[5] = 2 μM protein, compound 100 μM, Tm with ligand minus Tm of protein alone (1% DMSO)

human STING (WT), sequence (Q86WV6 other isoform, or with tags, fused parts or gaps, stated change not applied): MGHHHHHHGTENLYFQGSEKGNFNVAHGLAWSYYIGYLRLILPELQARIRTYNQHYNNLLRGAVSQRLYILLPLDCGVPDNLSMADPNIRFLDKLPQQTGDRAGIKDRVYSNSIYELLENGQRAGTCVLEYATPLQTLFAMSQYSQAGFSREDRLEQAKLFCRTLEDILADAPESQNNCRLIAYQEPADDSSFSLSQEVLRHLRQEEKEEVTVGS

Row | Compound | pEC50 [3] | pEC50 [4] | ΔTm at 100 µM [1, 5] [°C] | ΔTm at 100 µM [2, 5] [°C] | ΔTm at 100 µM [1] [°C] | ΔTm at 100 µM [2] [°C]
1 | COc1c(C(N)=O)ccc2c1nc(-c1cc(F)c(F)cc1C(=O)O)n2CCn1c(-c2cc(F)c(F)cc2C(=O)O)nc2c(OC)c(C(N)=O)ccc21 [Example 15, 6,6′-(Ethane-1,2-diylbis(5-carbamoyl-4-methoxy-1H-benzo[d]imidazole-1,2-diyl))bis(3,4-difluorobenzoic acid)] | 5.61 | 5.59 | – | – | -0.91 | 4.78
2 | COc1c(C(N)=O)ccc2c1nc(-c1c(F)cc(F)cc1C(=O)O)n2CCn1c(-c2c(F)cc(F)cc2C(=O)O)nc2c(OC)c(C(N)=O)ccc21 [Example 16, 2,2′-(Ethane-1,2-diylbis(5-carbamoyl-4-methoxy-1H-benzo[d]imidazole-1,2-diyl))bis(3,5-difluorobenzoic acid)] | 6.08 | 6.13 | 7.95 | 17.2 | – | –
3 | COc1c(C(N)=O)ccc2c1nc(-c1ccc(Cl)cc1-c1n[nH]c(=O)o1)n2CCn1c(-c2ccc(Cl)cc2-c2n[nH]c(=O)o2)nc2c(OC)c(C(N)=O)ccc21 [Example 17, 1,1′-(Ethane-1,2-diyl)bis(2-(4-chloro-2-(5-oxo-4,5-dihydro-1,3,4-oxadiazol-2-yl)phenyl)-4-methoxy-1H-benzo[d]imidazole-5-carboxamide)] | 6.44 | 6.54 | 3.05 | 11.9 | – | –
4 | COc1c(C(N)=O)cc(F)c2c1nc(-c1c(F)cc(F)cc1C(=O)O)n2CCn1c(-c2c(F)cc(F)cc2C(=O)O)nc2c(OC)c(C(N)=O)cc(F)c21 [Example 18, 2,2′-(Ethane-1,2-diylbis(5-carbamoyl-7-fluoro-4-methoxy-1H-benzo[d]imidazole-1,2-diyl))bis(3,5-difluorobenzoic acid)] | 6.25 | 6.49 | 2.4 | 19.1 | – | –
5 | COc1c(C(N)=O)ccc2c1nc(-c1ccc(C)cc1C(=O)O)n2CCn1c(-c2ccc(C)cc2C(=O)O)nc2c(OC)c(C(N)=O)ccc21 [Example 25, 6,6′-(Ethane-1,2-diylbis(5-carbamoyl-4-methoxy-1H-benzo[d]imidazole-1,2-diyl))bis(3-methylbenzoic acid)] | 5.49 | 5.53 | -18.4 | -15.6 | – | –

Continued, in another order:

Row | pEC50 [3] | pEC50 [4] | ΔTm at 100 µM [1, 5] [°C] | ΔTm at 100 µM [2, 5] [°C] | Compound | ΔTm at 100 µM [1] [°C] | ΔTm at 100 µM [2] [°C]
6 | 5.56 | 5.89 | -3 | 3.69 | COc1c(C(N)=O)cc(F)c2c1nc(-c1ccc(Cl)cc1C(=O)O)n2CCn1c(-c2ccc(Cl)cc2C(=O)O)nc2c(OC)c(C(N)=O)cc(F)c21 [Example 20, 6,6′-(Ethane-1,2-diylbis(5-carbamoyl-7-fluoro-4-methoxy-1H-benzo[d]imidazole-1,2-diyl))bis(3-chlorobenzoic acid)] | – | –
7 | 5.79 | 5.83 | 2.33 | 5.83 | COC(=O)c1c(Br)cccc1-c1nc2c(OC)c(C(N)=O)ccc2n1CCn1c(-c2cccc(Br)c2C(=O)OC)nc2c(OC)c(C(N)=O)ccc21 [Example 21, Dimethyl 6,6′-(ethane-1,2-diylbis(5-carbamoyl-4-methoxy-1H-benzo[d]imidazole-1,2-diyl))bis(2-bromobenzoate)] | – | –
8 | 5.38 | 5.57 | -3.16 | -0.08 | COc1c(C(N)=O)ccc2c1nc(-c1ccc(Cl)cc1-c1cn[nH]n1)n2CCn1c(-c2ccc(Cl)cc2-c2cn[nH]n2)nc2c(OC)c(C(N)=O)ccc21 [Example 24, 1,1′-(Ethane-1,2-diyl)bis(2-(4-chloro-2-(2H-1,2,3-triazol-4-yl)phenyl)-4-methoxy-1H-benzo[d]imidazole-5-carboxamide)] | – | –
9 | 5.49 | 5.47 | 1.13 | 6.33 | COc1c(C(N)=O)ccc2c1nc(-c1cc(C)ccc1C(=O)O)n2CCn1c(-c2cc(C)ccc2C(=O)O)nc2c(OC)c(C(N)=O)ccc21 [Example 26, 2,2′-(Ethane-1,2-diylbis(5-carbamoyl-4-methoxy-1H-benzo[d]imidazole-1,2-diyl))bis(4-methylbenzoic acid)] | – | –
